Source: PubChem BioAssay (NCI)
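GI50: concentration for 50% inhibition of growth. TGI: total growth inhibition.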

What was measured:
Experiment in all cases: NCI-60 cell line screen, 384-well format; in the data active = GI50 below about 0.43 µM; inactive = the rest
NCI-H522 lung = test system: NCI-H522 lung
RXF 393 renal = test system: RXF 393 renal
PC-3 prostate = test system: PC-3 prostate
LOX IMVI melanoma = test system: LOX IMVI melanoma
OVCAR-3 ovarian = test system: OVCAR-3 ovarian
NCI-H23 lung = test system: NCI-H23 lung
M14 melanoma = test system: M14 melanoma
A498 renal = test system: A498 renal
HT29 colon = test system: HT29 colon
OVCAR-4 ovarian = test system: OVCAR-4 ovarian
NCI-H226 lung = test system: NCI-H226 lung
SNB-75 CNS = test system: SNB-75 CNS
SR leukemia = test system: SR leukemia
HOP-92 NSCLC = test system: HOP-92 NSCLC
UACC-62 melanoma = test system: UACC-62 melanoma
CCRF-CEM leukemia = test system: CCRF-CEM leukemia
UO-31 renal = test system: UO-31 renal
RPMI-8226 leukemia = test system: RPMI-8226 leukemia
IGROV1 ovarian = test system: IGROV1 ovarian
SF-268 CNS = test system: SF-268 CNS
HL-60(TB) leukemia = test system: HL-60(TB) leukemia
SN12C renal = test system: SN12C renal
SNB-19 CNS = test system: SNB-19 CNS
OVCAR-5 ovarian = test system: OVCAR-5 ovarian
HCT-15 colon = test system: HCT-15 colon
MDA-MB-231 breast = test system: MDA-MB-231 breast
UACC-257 melanoma = test system: UACC-257 melanoma
HCT-116 colon = test system: HCT-116 colon
TK-10 renal = test system: TK-10 renal
OVCAR-8 ovarian = test system: OVCAR-8 ovarian
NCI/ADR-RES ovarian = test system: NCI/ADR-RES ovarian
SW-620 colon = test system: SW-620 colon
SK-MEL-2 melanoma = test system: SK-MEL-2 melanoma
MOLT-4 leukemia = test system: MOLT-4 leukemia
K-562 leukemia = test system: K-562 leukemia
HOP-62 NSCLC = test system: HOP-62 NSCLC
EKVX NSCLC = test system: EKVX NSCLC
COLO 205 colon = test system: COLO 205 colon
MCF7 breast = test system: MCF7 breast
SF-295 CNS = test system: SF-295 CNS
SK-OV-3 ovarian = test system: SK-OV-3 ovarian
KM12 colon = test system: KM12 colon
NCI-H460 NSCLC = test system: NCI-H460 NSCLC
SF-539 CNS = test system: SF-539 CNS
ACHN renal = test system: ACHN renal
MALME-3M melanoma = test system: MALME-3M melanoma
U251 glioblastoma = test system: U251 glioblastoma
CAKI-1 renal = test system: CAKI-1 renal
SK-MEL-28 melanoma = test system: SK-MEL-28 melanoma
MDA-MB-435 melanoma = test system: MDA-MB-435 melanoma
786-0 renal = test system: 786-0 renal
MDA-MB-468 breast = test system: MDA-MB-468 breast
HCC-2998 colon = test system: HCC-2998 colon
DU-145 prostate = test system: DU-145 prostate
BT-549 breast = test system: BT-549 breast
A549 NSCLC = test system: A549 NSCLC
NCI-H322M lung = test system: NCI-H322M lung
T-47D breast = test system: T-47D breast
SK-MEL-5 melanoma = test system: SK-MEL-5 melanoma

Cc1cc(C)c(S(=O)(=O)N(CCc2cccc(Br)c2)Cc2ccc(-c3cccc(S(C)(=O)=O)c3)cc2)c(C)c1
inactive: GI50 (NCI-H522 lung) > 100 µM | GI50 (RXF 393 renal) > 100 µM | GI50 (PC-3 prostate) > 100 µM | GI50 (LOX IMVI melanoma) > 100 µM | GI50 (OVCAR-3 ovarian) > 100 µM | GI50 (NCI-H23 lung) > 100 µM | GI50 (M14 melanoma) > 100 µM | GI50 (A498 renal) > 100 µM | GI50 (HT29 colon) > 100 µM | GI50 (OVCAR-4 ovarian) > 100 µM | GI50 (NCI-H226 lung) > 100 µM | GI50 (SNB-75 CNS) > 100 µM | GI50 (HOP-92 NSCLC) > 100 µM | GI50 (UACC-62 melanoma) > 100 µM | GI50 (CCRF-CEM leukemia) > 100 µM | GI50 (UO-31 renal) > 100 µM | GI50 (RPMI-8226 leukemia) > 100 µM | GI50 (IGROV1 ovarian) > 100 µM | GI50 (SF-268 CNS) > 100 µM | GI50 (SN12C renal) > 100 µM | GI50 (SNB-19 CNS) > 100 µM | GI50 (OVCAR-5 ovarian) > 100 µM | GI50 (HCT-15 colon) > 100 µM | GI50 (MDA-MB-231 breast) > 100 µM | GI50 (UACC-257 melanoma) > 100 µM | GI50 (HCT-116 colon) > 100 µM | GI50 (TK-10 renal) > 100 µM | GI50 (OVCAR-8 ovarian) > 100 µM | GI50 (NCI/ADR-RES ovarian) > 100 µM | GI50 (SW-620 colon) > 100 µM | GI50 (SK-MEL-2 melanoma) > 100 µM | GI50 (MOLT-4 leukemia) > 100 µM | GI50 (K-562 leukemia) > 100 µM | GI50 (HOP-62 NSCLC) > 100 µM | GI50 (EKVX NSCLC) > 100 µM | GI50 (COLO 205 colon) > 100 µM | GI50 (MCF7 breast) > 100 µM | GI50 (SK-OV-3 ovarian) > 100 µM | GI50 (KM12 colon) > 100 µM | GI50 (NCI-H460 NSCLC) > 100 µM | GI50 (SF-539 CNS) > 100 µM | GI50 (ACHN renal) > 100 µM | GI50 (MALME-3M melanoma) > 100 µM | GI50 (U251 glioblastoma) > 100 µM | GI50 (CAKI-1 renal) > 81.9 µM | GI50 (SK-MEL-28 melanoma) > 100 µM | GI50 (MDA-MB-435 melanoma) > 100 µM | GI50 ([…]-0 renal) > 100 µM | GI50 (MDA-MB-468 breast) > 100 µM | GI50 (HCC-2998 colon) > 100 µM | GI50 (DU-145 prostate) > 100 µM | GI50 (BT-549 breast) > 100 µM | GI50 (A549 NSCLC) > 100 µM | GI50 (NCI-H322M lung) > 100 µM | GI50 (T-47D breast) > 100 µM | GI50 (SK-MEL-5 melanoma) > 100 µM
> 100 µM: TGI (NCI-H522 lung) | TGI (RXF 393 renal) | TGI (PC-3 prostate) | TGI (LOX IMVI melanoma) | TGI (OVCAR-3 ovarian) | TGI (NCI-H23 lung) | TGI (M14 melanoma) | TGI (A498 renal) | TGI (HT29 colon) | TGI (OVCAR-4 ovarian) | TGI (NCI-H226 lung) | TGI (SNB-75 CNS) | TGI (SR leukemia) | TGI (HOP-92 NSCLC) | TGI (UACC-62 melanoma) | TGI (CCRF-CEM leukemia) | TGI (UO-31 renal) | TGI (RPMI-8226 leukemia) | TGI (IGROV1 ovarian) | TGI (SF-268 CNS) | TGI (HL-60(TB) leukemia) | TGI (SN12C renal) | TGI (SNB-19 CNS) | TGI (OVCAR-5 ovarian) | TGI (HCT-15 colon) | TGI (MDA-MB-231 breast) | TGI (UACC-257 melanoma) | TGI (HCT-116 colon) | TGI (TK-10 renal) | TGI (OVCAR-8 ovarian) | TGI (NCI/ADR-RES ovarian) | TGI (SW-620 colon) | TGI (SK-MEL-2 melanoma) | TGI (MOLT-4 leukemia) | TGI (K-562 leukemia) | TGI (HOP-62 NSCLC) | TGI (EKVX NSCLC) | TGI (COLO 205 colon) | TGI (MCF7 breast) | TGI (SK-OV-3 ovarian) | TGI (KM12 colon) | TGI (NCI-H460 NSCLC) | TGI (SF-539 CNS) | TGI (ACHN renal) | TGI (MALME-3M melanoma) | TGI (U251 glioblastoma) | TGI (CAKI-1 renal) | TGI (SK-MEL-28 melanoma) | TGI (MDA-MB-435 melanoma) | TGI (786-0 renal) | TGI (MDA-MB-468 breast) | TGI (HCC-2998 colon) | TGI (DU-145 prostate) | TGI (BT-549 breast) | TGI (A549 NSCLC) | TGI (NCI-H322M lung) | TGI (T-47D breast) | TGI (SK-MEL-5 melanoma)
active: GI50 (SF-295 CNS) 0.0672 µM
